Series [1] has as its system Staphylococcus aureus ATCC 6538. Nature of the series: contact germicidal (bactericidal) time before and after 14 day incubation of solutions at 40° C., Table B. The following applies: pH 7.0; for Bc Time, final: after 14 day incubation at 40° C.; for Bc Time, initial: before incubation, at initial ppm +Cl of the same line. It counts as cell-based. The procedure: (§1) The compounds of the invention and certain reference compounds were tested in the germidical efficiency test, a modification of the standard serial dilution test, against Staphylococcus aureus ATCC 6538. In the germicidal efficiency test, instead of determining the minimum inhibitory concentration as in the serial dilution test procedure, the time required to effect complete sterilization of the micro-organism when exposed to a given concentration of the test substance is determined. This procedure affords a basis of comparison of the time dependent efficacies of the various test substances which gives a measure not only of the germidical efficacy of the test species but, since as will be seen germicidal efficiency of the N-chloro compounds generally tends to diminish with time, apparently owing to decomposition of, and therefore dilution of, the active species, the test procedure also provides an indication of the efficacy to be expected at varying time intervals after solution of the test species in the application medium. The test procedure is described as follows: A stock solution of known concentration of each compound to be tested was prepared in 0.1M sodium dihydrogen phosphate buffered to pH 7.0. To 5 ml. of the test solution was added 0.2 ml. of an overnight broth culture containing from 6×10^6 to 8×10^6 organisms/ml. of Staphylococcus aureus ATCC 6538 and 5 g. of gelysate peptone and 3 g. of beef extract per 1000 ml. of water. At time intervals of 0.5, 1, 2, 3, 4, 5, 6, 7, 8, 9, 10, 15 and 30 minutes, a loop of this suspension was subcultured into 5 ml. of sterile nutrient broth (5 g. of gelysate peptone and 3 g. of beef extract/1000 ml. of water), and the samples were incubated at 37° C. for 7 days with daily observation for evidence of bacterial growth. The time interval in which no bacterial growth was observed after the incubation period in a particular sample was recorded as the end point.
(§2) The stabilities and the time-dependent efficacies of the claimed and reference species were determined by comparing the contact germicidal times and the initial and final concentrations of positive chlorine in solutions of the test species in 0.1M sodium dihydrogen phosphate buffered to pH 7.0 before and after 14 day incubation of the solutions at 40° C. The results are given in Table B below, where the columns headed "Bc Time" refers to the bactericidal time in minutes.

Series [2] in a line: positive chlorine concentration before and after 14 day incubation of solutions at pH 7.0, 40° C., Table B. Particulars: for Final Concn. of positive chlorine: after 14 day incubation at 40° C.; for Final Concn. of positive chlorine / Initial Concn. of positive chlorine: 0.1M phosphate pH 7.0; for Initial Concn. of positive chlorine: before incubation. It is filed as physicochemical. The procedure: (§3) The germicidal kill times so-obtained at various concentrations of the compounds of the invention and of certain reference compounds are given in Table A below. The compounds are identified in each case by the Example number above where the compounds are described. Here and elsewhere in the specification that follows, concentrations are expressed in parts per million (ppm) of "positive" chlorine, which was determined in each instance by addition of excess aqueous potassium iodide to an acidified solution of the test compound and titration of the iodine liberated with standard sodium thiosulfate solution.
as §2

A short description of series [3]: hydrolytic stability in 0.1M sodium dihydrogen phosphate pH 7.0 at 40° (first-order kinetics), Table C. It counts as physicochemical. The following applies: for half-life: 0.1m phosphate buffer; for half-life / Rate Constant k: hydrolysis, 0.1M phosphate pH 7.0, 40°; for Rate Constant k: first-order. The procedure: A further measure of the relative stabilities of the reference and claimed species was obtained by measuring the hydrolytic stability of the various species in 0.1M sodium dihydrogen phosphate buffered to pH 7.0 at 40°. For each species, the rate of change in the concentration of positive chlorine in the solution was measured by the volume of standard thiosulfate required to titrate a series of aliquots of a standard volume of the solution at various time intervals using potassium iodide/sodium thiosulfate as detailed above. The volumes of thiosulfate required to titrate each sample so obtained were interpreted as first-order kinetic processes. The hydrolytic stabilities of the reference and claimed species under the experimental conditions were characterized by the reaction rate constants and half-lives obtained from a linear regression analysis of the experimental data. The results obtained are given in Table C below and are also shown in FIG. 1 where the volumes in milliliters of standard thiosulfate required to titrate the positive chlorine in the various samples are plotted as ordinate against time in days as abscissa.

The subject of series [4] is Staphylococcus aureus ATCC 6538. The series can be described thus: germicidal efficiency test (modified serial dilution; time to complete sterilization), Table A. Particulars: pH 7.0. It is filed as cell-based. The procedure:
The compounds are thus useful as bactericidal agents.
as §1, §3

The nature of series [5]: stability in the neat state (% chlorine by iodometric titration), Table D. Particulars: 40° C. It is filed as physicochemical. The procedure:
In those instances, the data were acquired at ambient temperature (approximately 23° C.). The method used was similar to that described above in which the rate of disappearance of "positive" chlorine was followed iodometrically by titration of iodine liberated from added potassium iodide with standard sodium thiosulfate solution. Samples of the compounds were individually sealed in ampoules and stored in the dark at 23° C. or 40° C. and weighed amounts removed from time to time for analysis.
For each of the compounds analyzed as indicated above, percent chlorine was plotted as ordinate against time in days as abscissa on semi-logarithmic paper and the points connected by a smooth curve for each compound.

Each structure is given as a SMILES string. Where only a bound is given, the exact number is not on record here.

Data on two compounds can be found in patent US4000293A, “Method of inhibiting bacterial growth with certain selected 3-chloro-2-oxazolidinones” (Interx Research Corporation, priority 1975, dated 1976).

Broadly, the half-life is the time needed for the level to fall by half in the phase considered.

As for `O=C1OCCN1Cl` [Example 1A, 3-chloro-2-oxazolidinone], the “Bc Time, final” value in series [1] is greater than 30 min. In addition, the “Bc Time, initial” value in series [1] was determined as 1 min. In addition, in series [2], the “Final Concn. of positive chlorine” value is recorded as 30 ppm +Cl. Also, the “Initial Concn. of positive chlorine” value in series [2] came out at 465 ppm +Cl. Moreover, the half-life in series [3] is 1.88 days. Moreover, the “Rate Constant k” value in series [3] is 0.0155 h⁻¹. Besides, the entries for the “Bactericidal Time” value in series [4] (157 ppm +Cl), in series [4] (281 ppm +Cl) and in series [4] (465 ppm +Cl) were 7 min, 2 min and 1 min, respectively. Further, the “% Cl, neat” value is 28.9% in series [5] (0 Hrs.); 27.4% in series [5] (2 Hrs.); 25.9% in series [5] (18.5 Hrs.); 26.9% in series [5] (24 Hrs.); 27.2% in series [5] (54 Hrs.); 24.8% in series [5] (72 Hrs.). Moreover, the “% Cl, neat” value in series [5] (80 Hrs.) amounted to 23.5%; in series [5] (98 Hrs.), 26.2%; in series [5] (144 Hrs.) it was 8.7%; in series [5] (168 Hrs.), 0.4%.

On to `CC1(C)COC(=O)N1Cl` [Example 1F, 3-Chloro-4,4-dimethyl-2-oxazolidinone], for which the “Bc Time, final” value in series [1] was 2 min. The “bactericidal activity after the test period (in words)” value in series [1] (after 14 days at 40° C.) is listed as “retained the original level of bactericidal activity”. Further, the “Bc Time, initial” value in series [1] was 2 min. In addition, in series [2] (14 days, 40° C., pH 7.0), the “decomposition over the test period (in words)” value was “decomposed only slightly over the test period”. In addition, in series [2], the “Final Concn. of positive chlorine” value is reported as 527 ppm +Cl. Moreover, in series [2], the “Initial Concn. of positive chlorine” value came to 534 ppm +Cl. The same compound showed a half-life in series [3] of 84.9 days. In addition, the “Rate Constant k” value in series [3] was found to be 0.00034 h⁻¹. The “hydrolytic stability (in words)” value in series [3] (pH 7.0, 40°) is “unusual stability”. Further, the “Bactericidal Time” value in series [4] (148 ppm +Cl) is 5 min; in series [4] (195 ppm +Cl), 5 min; in series [4] (368 ppm +Cl), 3 min; in series [4] (508 ppm +Cl), 2 min. The “% Cl, neat” value in series [5] (0 Days) is given as 23.4%; in series [5] (1 Day) it was 23.0%; in series [5] (2 Days), 23.8%; in series [5] (7 Days) it was 23.5%; in series [5] (35 Days) it was 24.2%; in series [5] (49 Days), 23.3%. For the same compound, in series [5] (neat), the “stability in the neat state (in words)” value is on record as “surprising stability”.
